In PMC9697031, “Identification of Novel Diarylpyrimidines as Potent HIV-1 Non-Nucleoside Reverse Transcriptase Inhibitors by Exploring the Primer Grip Region” (Pharmaceuticals, 2022):
Read-outs that look alike come from different tables or passages of the source.

Tests used:
[1] = system: HIV-1 Y188L mutant strain; test: Anti-HIV-1 mutant strain Y188L in MT-4 cells, MTT method; format: cell-based; settings: Human immunodeficiency virus 1, MT4, read-out: EC50 Y188L
Description: (§2) Evaluation of the anti-HIV activity and cytotoxicity of the target compounds was performed by utilizing the MTT method in MT-4 cells described previously [37]. Stock solutions (10 × final concentration) of test compounds were added in 25 μL volumes to two series of triplicate wells to allow simultaneous evaluation of their effects on mock- and HIV-infected cells at the beginning of each experiment. Serial five-fold dilutions of test compounds were prepared directly in flat-bottomed 96-well microtiter trays by adding 100 μL medium to the 25 μL stock solution and transferring 25 μL of this solution to another well that contained 100 μL medium using a Biomek 3000 robot (Beckman Instruments, Fullerton, CA). Each sample includes untreated control HIV- and mock-infected cell samples. WT HIV-1 strain (IIIB), HIV-1 drug-resistant strains including L100I, K103N, Y181C, Y188L, E138K, K103N/Y181C, F227L/V106A or HIV-2 strain (ROD) stock (50 μL) at 100–300 CCID50 (50% cell culture infectious dose) or culture medium was added to either the infected or mock-infected wells of the microtiter tray. Mock-infected cells were used to evaluate the effect of test compounds on uninfected cells to evaluate their cytotoxicity. Exponentially growing MT-4 cells were centrifuged for 5 min at 1000 rpm, and the supernatant was discarded. […] After infection five days, the viability of mock- and HIV-infected cells was examined spectrophotometrically by the MTT assay.

[2] = system: HIV-1 RES056 (K103N/Y181C) mutant strain; test: Anti-HIV-1 double mutant RES056 in MT-4 cells, MTT method; format: cell-based; settings: Human immunodeficiency virus 1, MT4, read-out: EC50 RES056
Description: as §2

[3] = system: HIV-1 K103N mutant strain; test: microbe, parasite or virus in culture; format: cell-based; settings: for EC50: Human immunodeficiency virus 1, MT4, read-out: EC50 K103N; for Resistance Folds K103N: RF, EC50 (K103N)/EC50 (WT)
Description: (§1) Stock solutions (10 × final concentration) of test compounds were added in 25 μL volumes to two series of triplicate wells to allow simultaneous evaluation of their effects on mock- and HIV-infected cells at the beginning of each experiment.

[4] = system: HIV-1 E138K mutant strain; test: Anti-HIV-1 mutant strain E138K in MT-4 cells, MTT method; format: cell-based; settings: Human immunodeficiency virus 1, MT4, read-out: EC50 E138K
Description: as §2

in vitro = settings: human
Description: as §1

[5] = system: HIV-1 L100I mutant strain; test: Anti-HIV-1 mutant strain L100I in MT-4 cells, MTT method; format: cell-based; settings: Human immunodeficiency virus 1, MT4, read-out: EC50 L100I
Description: as §2

WT HIV-1 strain (IIIB) = test: Anti-HIV-1 (IIIB, wild-type) activity in MT-4 cells, MTT method; format: cell-based; settings: for SI (IIIB): selectivity index, CC50/EC50 (IIIB)
Description: as §1

[6] = system: HIV-1 Y181C mutant strain; test: Anti-HIV-1 mutant strain Y181C in MT-4 cells, MTT method; format: cell-based; settings: Human immunodeficiency virus 1, MT4, read-out: EC50 Y181C
Description: as §2

HIV-2 strain (ROD) = test: Anti-HIV-2 (ROD) activity in MT-4 cells, MTT method; format: cell-based
Description: as §1

[7] = system: HIV-1 F227L + V106A mutant strain; test: Anti-HIV-1 double mutant F227L + V106A in MT-4 cells, MTT method; format: cell-based; settings: Human immunodeficiency virus 1, MT4, read-out: EC50 F227L + V106A
Description: as §2

HIV-1 WT RT = target: T1, HIV-1 WT RT (Human immunodeficiency virus type 1 group M subtype B, UniProt P04585); test: HIV-1 RT inhibition assay (Roche kit, ELISA); format: biochemical
T1 construct: The RT is a heterodimer consisting of two subunits, p66 (560 residues) and p51 (440 residues); purchased Roche
Description: An HIV-1 reverse transcriptase (RT) assay kit produced by Roche was used for the RT inhibition assay. All the reagents for performing the RT reaction came from the kit, and the ELSIA procedures for RT inhibition assay were conducted following the description in the kit protocol [38]. […] Then used, a washing buffer was used to remove the unbound dNTPs, and an anti-DIG-POD working solution was added. […] The unbound anti-DIG-PODs were removed, and the peroxidesubstrate (ABST) solution was added to the MTPs. A colored reaction proceeds during the cleavage of the substrate catalyzed by POD. […] The percentage inhibitory activity of RT inhibitors was calculated by the formula given below: % Inhibition = [O.D. value with RT but without inhibitors − O.D. value with RT and inhibitors]/[O.D. value with RT and inhibitors − O.D. value without RT and inhibitors].

[8] = Human immunodeficiency virus 1, IIIB, MT4, read-out: EC50 IIIB, MT-4 cells, WT HIV-1 IIIB, MTT
[9] = Human immunodeficiency virus 2, MT4, read-out: EC50 ROD
[10] = Human immunodeficiency virus 1, MT4, MT-4 cells, WT HIV-1 IIIB, MTT, read-out: EC50 IIIB

Row | SMILES | EC50 [1] [nM] | melting point [°C] | EC50 [2] [nM] | EC50 [3] [nM] | Resistance Folds K103N [3] | EC50 [4] [nM] | CC50 at 5 days (in vitro) [nM] | EC50 [5] [nM] | EC50 (WT HIV-1 strain (IIIB); [8]) [nM] | SI (IIIB) (WT HIV-1 strain (IIIB)) | EC50 [6] [nM] | EC50 (HIV-2 strain (ROD); [9]) [nM] | EC50 [7] [nM] | IC50 (HIV-1 WT RT) [nM] | EC50 (WT HIV-1 strain (IIIB); [10]) [nM] | EC50 (HIV-2 strain (ROD); Human immunodeficiency virus 2, MT4, MT-4 cells, HIV-2 ROD, MTT, read-out: EC50 ROD) [nM]
1 | Cc1cc(COc2ccc(C#N)cc2)cc(C)c1Oc1ccnc(Nc2ccc(C#N)cc2)n1 [TF2, 4-((4-(4-((4-cyanophenoxy)methyl)-2,6-dimethylphenoxy)pyrimidin-2-yl)amino) benzonitrile] | 1390 ± 119 | 202 to 205 | > 279000 | 28.1 ± 7.1 | 3.68 | 44 ± 2.9 | > 279000 | 117 ± 49.5 | 7.6 ± 0.6 | >36,610.9 | 139 ± 34.9 | > 279000 | 1140 ± 346 | 55 ± 1 | – | –
2 | Cc1cc(COc2cncc(C#N)c2)cc(C)c1Oc1ccnc(Nc2ccc(C#N)cc2)n1 [TF13, 5-((4-((2-((4-cyanophenyl)amino)pyrimidin-4-yl)oxy)-3,5-dimethylbenzyl)oxy) nicotinonitrile] | 1050 ± 66.8 | 195 to 198 | 1180 ± 68.2 | 28 ± 2.5 | 1.47 | 57.7 ± 11.6 | 4770 ± 1560 | 125 ± 5.9 | 19.4 ± 3.4 | 246.4 | 265 ± 24.6 | > 4770 | 1650 ± 19.9 | 59 ± 1 | – | –
3 | O=C1Nc2ccc(Cl)cc2[C@@](C#CC2CC2)(C(F)(F)F)O1 [EFV, efavirenz, reference compound] | 240 ± 30.4 | – | 184 ± 22 | 95.1 ± 9.1 | – | 4.4 ± 0.3 | > 6340 | 35 ± 4.7 | – | – | 5.5 ± 0.5 | – | 201 ± 17.3 | – | 2.4 ± 0.3 | –
4 | Cc1cc(COc2ccc([N+](=O)[O-])cc2)cc(C)c1Oc1ccnc(Nc2ccc(C#N)cc2)n1 [TF15, 4-((4-(2,6-Dimethyl-4-((4-nitrophenoxy)methyl)phenoxy)pyrimidin-2-yl)amino) benzonitrile] | 1080 ± 99.4 | – | 1800 ± 68.5 | 46.3 ± 9.7 | 2.00 | 50 ± 4.4 | 215000 | 105 ± 15.2 | 23.1 ± 3.1 | – | 196 ± 25.4 | > 215000 | 1660 ± 448 | 63 ± 1 | – | –
5 | Cc1cc(COc2cccc(CO)c2)cc(C)c1Oc1ccnc(Nc2ccc(C#N)cc2)n1 [TF9, 4-((4-(4-((3-(hydroxymethyl)phenoxy)methyl)-2,6-dimethylphenoxy)pyrimidin-2-yl)amino)benzonitrile] | 1100 ± 95.7 | 147 to 150 | 1590 ± 87.5 | 120 ± 18.2 | 3.87 | 147 ± 12 | 3460 ± 375 | 308 ± 46.3 | 30.5 ± 4 | 113.3 | 499 ± 44.6 | > 3460 | 1000 ± 29.6 | 53 | – | –
6 | Cc1cn([C@H]2C[C@H](N=[N+]=[N-])[C@@H](CO)O2)c(=O)[nH]c1=O [AZT, Zidovudine, reference compound] | 19.4 ± 2.9 | – | 25.1 ± 1.8 | 22.8 ± 1.1 | – | 30.1 ± 3 | > 7480 | 10 ± 1.2 | – | >274.0 | 25.1 ± 3 | – | 14.8 ± 1.1 | – | 27.3 ± 3.5 | 23.3 ± 2.1
7 | Cc1cc(COc2ccccc2C#N)cc(C)c1Oc1ccnc(Nc2ccc(C#N)cc2)n1 [TF4, 2-((4-((2-((4-cyanophenyl)amino)pyrimidin-4-yl)oxy)-3,5-dimethylbenzyl)oxy) benzonitrile] | > 5300 | – | > 5300 | 75.9 ± 13.9 | 9.74 | 103 ± 6.8 | 5290 ± 356 | 315 ± 30.7 | 7.8 ± 1 | – | 482 ± 42.6 | > 5290 | 1280 ± 303 | 50 ± 2 | – | –
8 | COc1ccc(OCc2cc(C)c(Oc3ccnc(Nc4ccc(C#N)cc4)n3)c(C)c2)cc1 [TF5, 4-((4-(4-((4-methoxyphenoxy)methyl)-2,6-dimethylphenoxy)pyrimidin-2-yl)amino)benzonitrile] | 964 ± 98.1 | – | > 254000 | 44.5 ± 4.9 | 2.00 | 65.3 ± 10 | 254000 | 126 ± 12.6 | 21.7 ± 3.6 | – | 268 ± 28.9 | > 254000 | 1410 ± 570 | 54 ± 4 | – | –
9 | Cc1cc(COc2cccc(C#N)c2)cc(C)c1Oc1ccnc(Nc2ccc(C#N)cc2)n1 [TF3, 3-((4-((2-((4-cyanophenyl)amino)pyrimidin-4-yl)oxy)-3,5-dimethylbenzyl)oxy) benzonitrile] | 895 ± 90.2 | – | 1540 ± 102 | 48.4 ± 7.5 | 1.92 | 87.7 ± 8.5 | 5520 ± 297 | 116 ± 5.8 | 24.5 ± 4.1 | – | 245 ± 39.6 | > 5520 | 755 ± 156 | 60 | – | –
10 | COc1ccccc1OCc1cc(C)c(Oc2ccnc(Nc3ccc(C#N)cc3)n2)c(C)c1 [TF7, 4-((4-(4-((2-methoxyphenoxy)methyl)-2,6-dimethylphenoxy)pyrimidin-2-yl)amino)benzonitrile] | > 8150 | – | > 8150 | 164 ± 5.5 | 6.31 | 181 ± 10.7 | 8150 ± 548 | 452 ± 70.5 | 25.5 ± 8.4 | – | 791 ± 62.9 | > 8150 | 1220 ± 179 | 73 ± 3 | – | –
11 | Cc1ccnc2c1NC(=O)c1cccnc1N2C1CC1 [NVP, nevirapine, reference compound] | ≥ 13800 | – | > 15000 | 7500 ± 867 | – | 149 ± 12 | > 15000 | 1860 ± 365 | – | – | 10100 | – | > 15000 | – | 123 ± 7.3 | –
12 | Cc1cc(COc2ccc(N)cc2)cc(C)c1Oc1ccnc(Nc2ccc(C#N)cc2)n1 [TF17, 4-((4-(4-((4-Aminophenoxy)methyl)-2,6-dimethylphenoxy)pyrimidin-2-yl)amino) benzonitrile] | 905 ± 147 | – | – | 65.3 ± 7.6 | 1.97 | 152 ± 10.3 | 5490 ± 328 | 226 ± 28.9 | 32.5 ± 1.7 | – | 552 ± 62.5 | > 5490 | 747 ± 72.2 | 57 ± 3 | – | –
